Patent US20250326732A1 (Pretzel Therapeutics, Inc., priority 2021, published 2025)

Target: POLRMT (Homo sapiens (Human), UniProt O00411)
Test: homogeneous TR-FRET assay of mitochondrial transcription (inhibition of POLRMT)
Assay type: biochemical
Settings: 7.5 nM POLRMT, 15 nM TFB2M, 30 nM TFAM, 0.5 nM DNA template, 500 μM NTPs, 37° C. for 60 minutes
Outline: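 POLRMT transcription from linearized pUC-LSP DNA template; RNA product detected by hybridization of ATTO647 acceptor (1 nM) and biotinylated donor (3 nM) probes plus Europium-streptavidin. Reaction stopped with EDTA/700 mM NaCl buffer, pH 7.5.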

Chain of POLRMT (O00411 42-1230): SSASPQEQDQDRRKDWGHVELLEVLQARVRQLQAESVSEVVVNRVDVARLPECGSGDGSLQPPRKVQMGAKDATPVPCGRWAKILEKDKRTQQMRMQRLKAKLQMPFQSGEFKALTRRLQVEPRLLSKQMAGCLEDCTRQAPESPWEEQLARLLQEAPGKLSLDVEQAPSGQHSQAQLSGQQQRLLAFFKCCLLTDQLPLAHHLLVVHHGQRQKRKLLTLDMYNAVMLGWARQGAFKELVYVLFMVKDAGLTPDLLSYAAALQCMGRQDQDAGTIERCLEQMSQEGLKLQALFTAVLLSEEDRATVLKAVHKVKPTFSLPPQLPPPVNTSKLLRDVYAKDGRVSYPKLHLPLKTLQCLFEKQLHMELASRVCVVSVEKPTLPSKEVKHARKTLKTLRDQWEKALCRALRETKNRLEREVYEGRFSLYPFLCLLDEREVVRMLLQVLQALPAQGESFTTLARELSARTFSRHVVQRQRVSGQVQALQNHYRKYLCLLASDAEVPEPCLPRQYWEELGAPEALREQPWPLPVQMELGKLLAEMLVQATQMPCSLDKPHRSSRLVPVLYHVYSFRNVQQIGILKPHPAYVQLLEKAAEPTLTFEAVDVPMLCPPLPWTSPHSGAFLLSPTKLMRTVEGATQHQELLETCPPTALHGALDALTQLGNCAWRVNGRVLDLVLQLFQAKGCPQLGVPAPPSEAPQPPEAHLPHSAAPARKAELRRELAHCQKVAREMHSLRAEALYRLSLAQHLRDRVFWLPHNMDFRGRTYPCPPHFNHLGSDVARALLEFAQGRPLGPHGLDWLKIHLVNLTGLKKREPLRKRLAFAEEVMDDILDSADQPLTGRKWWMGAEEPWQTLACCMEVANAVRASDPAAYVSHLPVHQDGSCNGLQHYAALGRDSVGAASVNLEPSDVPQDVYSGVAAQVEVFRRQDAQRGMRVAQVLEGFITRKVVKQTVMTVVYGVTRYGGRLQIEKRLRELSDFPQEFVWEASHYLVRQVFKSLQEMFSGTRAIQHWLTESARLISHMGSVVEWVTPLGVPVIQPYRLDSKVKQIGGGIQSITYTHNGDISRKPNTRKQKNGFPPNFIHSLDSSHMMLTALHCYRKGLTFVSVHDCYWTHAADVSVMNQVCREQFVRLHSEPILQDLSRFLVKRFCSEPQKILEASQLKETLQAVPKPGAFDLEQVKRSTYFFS

| SMILES | IC50 [µM] |
| --- | --- |
| CNC(=O)CCN(C)c1ccc2c(-c3ccccc3C)cc(=O)oc2c1 [Example 140, N-methyl-3-(methyl(2-oxo-4-(o-tolyl)-2H-chromen-7-yl)amino)propanamide] | 0.9 |
| Cc1ccccc1-c1cc(=O)oc2cc(N(C)CC(=O)OC(C)C)ccc12 [Example 141, isopropyl N-methyl-N-(2-oxo-4-(o-tolyl)-2H-chromen-7-yl)glycinate] | 0.02 |
| CCOC(=O)CN(C)c1ccc2c(-c3ccccc3C)cc(=O)oc2c1 [Example 142, ethyl N-methyl-N-(2-oxo-4-(o-tolyl)-2H-chromen-7-yl)glycinate] | 0.02 |
| COC(=O)CN(C)c1ccc2c(-c3ccccc3C)cc(=O)oc2c1 [Example 143, methyl N-methyl-N-(2-oxo-4-(o-tolyl)-2H-chromen-7-yl)glycinate] | 0.03 |
| Cc1ccccc1-c1cc(=O)oc2cc(NCCC(=O)O)ccc12 [Example 145, 3-((2-oxo-4-(o-tolyl)-2H-chromen-7-yl)amino)propanoic acid] | 4 |
| Cc1ccccc1-c1cc(=O)oc2cc(N[C@H](C)CC(=O)O)ccc12 [Example 148, (R)-3-((2-oxo-4-(o-tolyl)-2H-chromen-7-yl)amino)butanoic acid] | 2 |
| CCOC(=O)[C@H]1CCCN(C(=O)[C@@H](C)Oc2cc(C)cc3oc(=O)cc(-c4ccc(F)cc4)c23)C1 [Example 159, ethyl (S)-1-((R)-2-((4-(4-fluorophenyl)-7-methyl-2-oxo-2H-chromen-5-yl)oxy)propanoyl)piperidine-3-carboxylate] | > 100 |
| Cc1cc(O[C@H](C)C(=O)N2CCC[C@H](C(=O)O)C2)c2c(-c3ccc(F)cc3)cc(=O)oc2c1 [Example 160, (S)-1-((R)-2-((4-(4-fluorophenyl)-7-methyl-2-oxo-2H-chromen-5-yl)oxy)propanoyl)piperidine-3-carboxylic acid] | > 100 |
| Cc1cc(O[C@H](C)C(=O)N2CCCCC2)c2c(-c3ccc(F)cc3)cc(=O)oc2c1 [Example 161, (R)-4-(4-fluorophenyl)-7-methyl-5-((1-oxo-1-(piperidin-1-yl)propan-2-yl)oxy)-2H-chromen-2-one] | > 100 |
| Cc1cc(O[C@H](C)C(=O)N(C)C)c2c(-c3ccc(F)cc3)cc(=O)oc2c1 [Example 162, (R)-2-((4-(4-fluorophenyl)-7-methyl-2-oxo-2H-chromen-5-yl)oxy)-N,N-dimethylpropanamide] | > 100 |
| COCc1cc(C)c2c(-c3ccccc3C)cc(=O)oc2c1 [Example 163, 7-(methoxymethyl)-5-methyl-4-(o-tolyl)-2H-chromen-2-one] | 0.5 |
| Cc1ccccc1-c1cc(=O)oc2cc(NCc3ccccn3)ccc12 [Example 164, 7-((pyridin-2-ylmethyl)amino)-4-(o-tolyl)-2H-chromen-2-one] | 4 |
| Cc1ccccc1-c1cc(=O)oc2cc(NCc3nccs3)ccc12 [Example 165, 7-((thiazol-2-ylmethyl)amino)-4-(o-tolyl)-2H-chromen-2-one] | 3 |
| Cc1ccccc1-c1cc(=O)oc2cc(NCc3ncco3)ccc12 [Example 166, 7-((oxazol-2-ylmethyl)amino)-4-(o-tolyl)-2H-chromen-2-one] | 5 |
| Cc1ccccc1-c1cc(=O)oc2cc(N(C)Cc3nccs3)ccc12 [Example 167, 7-(methyl(thiazol-2-ylmethyl)amino)-4-(o-tolyl)-2H-chromen-2-one] | 0.1 |
| Cc1ccccc1-c1cc(=O)oc2cc(N(C)Cc3ccccn3)ccc12 [Example 168, 7-(methyl(pyridin-2-ylmethyl)amino)-4-(o-tolyl)-2H-chromen-2-one] | 0.09 |
| Cc1ccccc1-c1cc(=O)oc2cc(NCc3ccn[nH]3)ccc12 [Example 169, 7-(((1H-pyrazol-5-yl)methyl)amino)-4-(o-tolyl)-2H-chromen-2-one] | 3 |
| Cc1ccccc1-c1cc(=O)oc2cc(C(=O)N3CCCC(N(C)C)C3)ccc12 (stereo not drawn) [Example 170, 7-(3-(dimethylamino)piperidine-1-carbonyl)-4-(o-tolyl)-2H-chromen-2-one] | > 100 |
| CC(=O)NC[C@H]1CCN(C(=O)c2ccc3c(-c4ccccc4C)cc(=O)oc3c2)C1 [Example 174, (R)—N-((1-(2-oxo-4-(o-tolyl)-2H-chromene-7-carbonyl)pyrrolidin-3-yl)methyl)acetamide] | 47 |
| CNC(=O)CN(C)c1ccc2c(-c3ccccc3C)cc(=O)oc2c1 [Example 177, N-methyl-2-(methyl(2-oxo-4-(o-tolyl)-2H-chromen-7-yl)amino)acetamide] | 0.05 |
| Cc1ccccc1-c1cc(=O)oc2cc(N(C)Cc3ccn[nH]3)ccc12 [Example 178, 7-(((1H-pyrazol-5-yl)methyl)(methyl)amino)-4-(o-tolyl)-2H-chromen-2-one] | 0.05 |
| Cc1ccccc1-c1cc(=O)oc2cc(N(C)Cc3nnn[nH]3)ccc12 [Example 179, 7-(((1H-tetrazol-5-yl)methyl)(methyl)amino)-4-(o-tolyl)-2H-chromen-2-one] | 0.1 |
| Cc1ccccc1-c1cc(=O)oc2cc(C(=O)N3CCC(CN(C)C)C3)ccc12 (stereo not drawn) [Example 181, 7-(3-((dimethylamino)methyl)pyrrolidine-1-carbonyl)-4-(o-tolyl)-2H-chromen-2-one] | > 100 |
| Cc1ccccc1-c1cc(=O)oc2cc(NCc3nnn[nH]3)ccc12 [Example 184, 7-(((1H-tetrazol-5-yl)methyl)amino)-4-(o-tolyl)-2H-chromen-2-one] | 3 |
| Cc1ccccc1-c1cc(=O)oc2cc(NCc3ccon3)ccc12 [Example 185, 7-((isoxazol-3-ylmethyl)amino)-4-(o-tolyl)-2H-chromen-2-one] | 0.7 |

Further lines, results first:

| IC50 [µM] | SMILES |
| --- | --- |
| 0.1 | Cc1ccccc1-c1cc(=O)oc2cc(N(C)CCC(=O)O)ccc12 [Example 144, 3-(methyl(2-oxo-4-(o-tolyl)-2H-chromen-7-yl)amino)propanoic acid] |
| 0.3 | Cc1ccccc1-c1cc(=O)oc2cc(CN(C)C(=O)N3CCC[C@H](C(=O)O)C3)ccc12 [Example 146, (S)-1-(methyl((2-oxo-4-(o-tolyl)-2H-chromen-7-yl)methyl)carbamoyl)piperidine-3-carboxylic acid] |
| 0.3 | Cc1ccccc1-c1cc(=O)oc2cc(CN(C)C(=O)N3CCC(C(=O)O)CC3)ccc12 [Example 147, 1-(methyl((2-oxo-4-(o-tolyl)-2H-chromen-7-yl)methyl)carbamoyl)piperidine-4-carboxylic acid] |
| 1 | Cc1ccccc1-c1cc(=O)oc2cc(N[C@@H](C)CC(=O)O)ccc12 [Example 149, (S)-3-((2-oxo-4-(o-tolyl)-2H-chromen-7-yl)amino)butanoic acid] |
| 2 | Cc1ccccc1-c1cc(=O)oc2cc(CNC(=O)N3CCC[C@H](C(=O)O)C3)ccc12 [Example 150, (S)-1-(((2-oxo-4-(o-tolyl)-2H-chromen-7-yl)methyl)carbamoyl)piperidine-3-carboxylic acid] |
| 3 | Cc1ccccc1-c1cc(=O)oc2cc(CNC(=O)N3CCC(C(=O)O)CC3)ccc12 [Example 151, 1-(((2-oxo-4-(o-tolyl)-2H-chromen-7-yl)methyl)carbamoyl)piperidine-4-carboxylic acid] |
| 0.3 | Cc1ccccc1-c1cc(=O)oc2cc(CNC(=O)C3CCC(C(=O)O)CC3)ccc12 [Example 152, (1R,4R)-4-(((2-oxo-4-(o-tolyl)-2H-chromen-7-yl)methyl)carbamoyl)cyclohexane-1-carboxylic acid] |
| 0.2 | Cc1ccccc1-c1cc(=O)oc2cc(CNC(=O)C3CCC(C(=O)O)CC3)ccc12 (stereo not drawn) [Example 153, 4-(((2-oxo-4-(o-tolyl)-2H-chromen-7-yl)methyl)carbamoyl)cyclohexane-1-carboxylic acid] |
| 0.4 | Cc1ccccc1-c1cc(=O)oc2cc(N(C)CC(C)C(=O)O)ccc12 (stereo not drawn) [Example 155-2] |
| 0.2 | Cc1ccccc1-c1cc(=O)oc2cc(CN(C)C(=O)C3CCC(C(=O)O)CC3)ccc12 [Example 156, (1R,4R)-4-(methyl((2-oxo-4-(o-tolyl)-2H-chromen-7-yl)methyl)carbamoyl)cyclohexane-1-carboxylic acid] |
| 2 | Cc1ccccc1-c1cc(=O)oc2cc(CNC(=O)C3CCC(C(=O)O)CC3)ccc12 [Example 157, (1S,4S)-4-(((2-oxo-4-(o-tolyl)-2H-chromen-7-yl)methyl)carbamoyl)cyclohexane-1-carboxylic acid] |
| 0.8 | Cc1ccccc1-c1cc(=O)oc2cc(CN(C)C(=O)C3CCC(C(=O)O)CC3)ccc12 [Example 158, (1S,4S)-4-(methyl((2-oxo-4-(o-tolyl)-2H-chromen-7-yl)methyl)carbamoyl)cyclohexane-1-carboxylic acid] |
| > 100 | CC(=O)N(C)[C@@H]1CCCN(C(=O)c2ccc3c(-c4ccccc4C)cc(=O)oc3c2)C1 [Example 172, (R)—N-methyl-N-(1-(2-oxo-4-(o-tolyl)-2H-chromene-7-carbonyl)piperidin-3-yl)acetamide] |
| 73 | CC(=O)N(C)[C@H]1CCCN(C(=O)c2ccc3c(-c4ccccc4C)cc(=O)oc3c2)C1 [Example 173, (S)—N-methyl-N-(1-(2-oxo-4-(o-tolyl)-2H-chromene-7-carbonyl)piperidin-3-yl)acetamide] |
| 0.2 | CC[C@@H](C(=O)O)N(C)c1ccc2c(-c3ccccc3C)cc(=O)oc2c1 [Example 180, (S)-2-(methyl(2-oxo-4-(o-tolyl)-2H-chromen-7-yl)amino)butanoic acid] |
| 12 | COC(=O)C1CN(C(=O)c2ccc3c(-c4ccccc4C)cc(=O)oc3c2)C1 [Example 182, methyl 1-(2-oxo-4-(o-tolyl)-2H-chromene-7-carbonyl) azetidine-3-carboxylate] |
| 7 | Cc1ccccc1-c1cc(=O)oc2cc(C(=O)N3CC(C(N)=O)C3)ccc12 [Example 183, 1-(2-oxo-4-(o-tolyl)-2H-chromene-7-carbonyl) azetidine-3-carboxamide] |
